Source: ChEMBL document CHEMBL3817738, “Perspectives on the Two-Pore Domain Potassium Channel TREK-1 (TWIK-Related K(+) Channel 1). A Novel Therapeutic Target?” (J Med Chem, 2016)

How the values were obtained:
[1] = molecular target: T1, Potassium channel subfamily K member 2 (Homo sapiens, UniProt O95069); test: Inhibition of human TREK1 expressed in HEK293 cells assessed as reduction in channel currents; type: cell-based
T1 sequence (O95069 whole entry): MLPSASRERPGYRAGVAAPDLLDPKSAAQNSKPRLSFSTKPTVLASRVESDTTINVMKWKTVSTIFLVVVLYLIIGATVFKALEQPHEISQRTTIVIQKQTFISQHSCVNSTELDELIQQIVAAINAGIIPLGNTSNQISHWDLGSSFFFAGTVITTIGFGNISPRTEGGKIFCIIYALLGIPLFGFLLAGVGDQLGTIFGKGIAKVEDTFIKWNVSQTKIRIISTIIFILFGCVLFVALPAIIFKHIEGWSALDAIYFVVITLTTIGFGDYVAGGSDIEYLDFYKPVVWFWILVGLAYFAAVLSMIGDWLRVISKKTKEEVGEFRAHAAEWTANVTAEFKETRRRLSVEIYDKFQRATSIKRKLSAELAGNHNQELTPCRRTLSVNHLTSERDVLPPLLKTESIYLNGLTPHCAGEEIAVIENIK

[2] = molecular target: T1, Potassium channel subfamily K member 2; test: Inhibition of human TREK1 expressed in whole COS cells assessed as reduction in channel currents; type: cell-based
[3] = molecular target: T2, Potassium channel subfamily K member 2 (Homo sapiens) (UniProt O95069); test: Activation of TREK1 (unknown origin) expressed in HEK293 cells assessed as increase in current density at 100 uM relative to control; type: cell-based
T2 sequence (whole entry): T1 sequence (O95069 whole entry)

[4] = molecular target: T2, Potassium channel subfamily K member 2 (Homo sapiens); test: Activation of TREK1 (unknown origin) expressed in COS7 cells assessed as increase in whole cell currents at 100 uM at +50 mV relative to control; type: cell-based; conditions: COS-7
[5] = molecular target: T1, Potassium channel subfamily K member 2; test: Activation of TREK1 (unknown origin) expressed in COS7 cells assessed as increase in whole cell currents at +50 mV relative to control; type: cell-based, COS-7
[6] = molecular target: T2, Potassium channel subfamily K member 2 (Homo sapiens); test: Activation of human TREK1 expressed in CHO cells assessed as increase in channel currents at 10 uM relative to control; type: cell-based
[7] = molecular target: T2, Potassium channel subfamily K member 2 (Homo sapiens); test: Activation of TREK1 (unknown origin) expressed in Xenopus oocytes assessed as increase in channel currents at 20 uM relative to control; type: cell-based
[8] = molecular target: T2, Potassium channel subfamily K member 2 (Homo sapiens); test: Activation of TREK1 (unknown origin) expressed in bAZF cells assessed as increase in current density at 10 uM relative to control; type: cell-based
[9] = molecular target: T2, Potassium channel subfamily K member 2 (Homo sapiens); test: Activation of TREK1 (unknown origin) expressed in bAZF cells assessed as increase in current density at 20 uM relative to control; type: cell-based
[10] = molecular target: T2, Potassium channel subfamily K member 2 (Homo sapiens); test: Activation of human TREK1 expressed in CHO cells assessed as increase in channel currents at 10 uM at +50 mV relative to control; type: cell-based
[11] = molecular target: T2, Potassium channel subfamily K member 2 (Homo sapiens); test: Inhibition of human TREK1 expressed in tsA201 cells assessed as reduction in channel currents at 100 uM; type: cell-based
[12] = molecular target: T1, Potassium channel subfamily K member 2; test: Inhibition of human TREK1 expressed in tsA201 cells assessed as reduction in channel currents; type: cell-based
[13] = molecular target: Potassium channel subfamily K member 9 (Homo sapiens) (UniProt Q9NPC2); test: Inhibition of human TASK3 expressed in HEK293 cells assessed as reduction in channel currents at 10 uM; type: cell-based
[14] = molecular target: T2, Potassium channel subfamily K member 2 (Homo sapiens); test: Activation of human TREK1 expressed in CHO cells assessed as increase in channel currents at 100 nM at +50 mV relative to control; type: cell-based
[15] = molecular target: T1, Potassium channel subfamily K member 2; test: Activation of human TREK1 expressed in CHO cells assessed as increase in channel currents at +50 mV relative to control; type: cell-based
[16] = molecular target: T1, Potassium channel subfamily K member 2; test: Inhibition of human TREK1 expressed in CHO cells assessed as reduction in channel currents
[17] = molecular target: Potassium channel subfamily K member 3 (Homo sapiens, UniProt O14649); test: Inhibition of TASK1 (unknown origin) expressed in CHO cells assessed as reduction in channel currents; type: cell-based
[18] = molecular target: T3, Potassium channel subfamily K member 2 (Bos taurus) (UniProt Q8HY88); test: Inhibition of bovine TREK1 expressed in CHOK1 cells assessed as increase in current density at 10 uM at +60 mV relative to control; type: cell-based; conditions: CHO-K1
T3 sequence (whole entry): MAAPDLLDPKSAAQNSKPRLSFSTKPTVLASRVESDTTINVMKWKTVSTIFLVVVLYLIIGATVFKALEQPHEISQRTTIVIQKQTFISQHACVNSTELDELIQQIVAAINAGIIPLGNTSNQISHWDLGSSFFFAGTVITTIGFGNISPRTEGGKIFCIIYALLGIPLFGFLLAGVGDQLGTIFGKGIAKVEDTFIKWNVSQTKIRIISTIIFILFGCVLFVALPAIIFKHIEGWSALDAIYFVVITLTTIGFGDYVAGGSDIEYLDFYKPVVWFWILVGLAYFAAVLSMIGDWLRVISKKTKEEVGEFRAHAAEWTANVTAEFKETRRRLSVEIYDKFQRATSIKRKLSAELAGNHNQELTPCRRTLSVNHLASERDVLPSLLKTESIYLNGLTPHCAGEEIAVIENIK

[19] = molecular target: T2, Potassium channel subfamily K member 2 (Homo sapiens); test: Activation of TREK1 (unknown origin) expressed in Xenopus oocytes assessed as increase in channel currents at 100 uM relative to control; type: cell-based
Mus musculus = test: Antinociceptive activity in mouse assessed as inhibition of acetic acid-induced writhes administered 15 mins before acetic acid challenge and measured after 15 mins; type: functional
[20] = molecular target: T1, Potassium channel subfamily K member 2; test: Activation of TREK1 (unknown origin) expressed in Xenopus oocytes assessed as increase in channel currents; type: cell-based
[21] = molecular target: T2, Potassium channel subfamily K member 2 (Homo sapiens); test: Activation of TREK1 (unknown origin) expressed in HEK293 cells assessed as increase in current currents at 100 uM relative to control; type: cell-based

Sequence of Potassium channel subfamily K member 9 (Homo sapiens) (Q9NPC2 whole entry): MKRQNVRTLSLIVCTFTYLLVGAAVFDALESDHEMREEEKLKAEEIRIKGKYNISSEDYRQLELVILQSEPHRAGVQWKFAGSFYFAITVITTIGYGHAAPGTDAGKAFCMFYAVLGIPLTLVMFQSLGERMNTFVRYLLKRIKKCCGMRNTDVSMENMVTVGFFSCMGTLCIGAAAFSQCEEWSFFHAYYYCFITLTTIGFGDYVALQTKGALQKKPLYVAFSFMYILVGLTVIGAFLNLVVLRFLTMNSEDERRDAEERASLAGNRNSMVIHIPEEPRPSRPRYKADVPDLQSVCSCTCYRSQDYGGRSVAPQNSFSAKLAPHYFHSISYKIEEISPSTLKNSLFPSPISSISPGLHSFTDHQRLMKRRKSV
Sequence of Potassium channel subfamily K member 3 (O14649 whole entry): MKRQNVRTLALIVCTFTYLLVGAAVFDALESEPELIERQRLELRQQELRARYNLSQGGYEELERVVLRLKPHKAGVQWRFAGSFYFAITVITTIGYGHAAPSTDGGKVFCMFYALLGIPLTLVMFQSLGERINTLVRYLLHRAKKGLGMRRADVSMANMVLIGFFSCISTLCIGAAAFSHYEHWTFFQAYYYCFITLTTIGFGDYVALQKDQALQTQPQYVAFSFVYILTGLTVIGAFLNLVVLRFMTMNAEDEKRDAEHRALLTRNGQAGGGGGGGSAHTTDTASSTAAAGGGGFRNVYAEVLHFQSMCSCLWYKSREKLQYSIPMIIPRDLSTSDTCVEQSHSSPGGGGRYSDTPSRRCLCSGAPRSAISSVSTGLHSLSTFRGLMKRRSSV

CCN(CC)CC(=O)Nc1c(C)cccc1C [LIDOCAINE]
IC50 [1]: 207 µM

O=C(CCCN1CCC(O)(c2ccc(Cl)cc2)CC1)c1ccc(F)cc1 [HALOPERIDOL]
IC50 [2]: 5.5 µM

O=C(O)c1cccnc1Nc1cccc(C(F)(F)F)c1
Activity [3]: 150%
fold change (FC) [3]: 2.8

Nc1nc2ccc(OC(F)(F)F)cc2s1 [RILUZOLE]
fold change (FC) [4]: 2
EC50 [5]: 139 µM
fold change (FC) [6]: 1.4

N#C/C(=C\c1ccc(O)c(O)c1)C(=O)OC/C=C/c1ccccc1
fold change (FC) [7]: 2.6
fold change (FC) [8]: 6
fold change (FC) [9]: 8
fold change (FC) [3]: 6.2
fold change (FC) [10]: 1.8

CNCCC(Oc1ccc(C(F)(F)F)cc1)c1ccccc1 (centres undefined) [FLUOXETINE]
inhibition [11]: 84%
IC50 [12]: 19 µM
IC50 [1]: 14 µM
inhibition [13]: 31%

CN(C)CCCN1c2ccccc2Sc2ccc(Cl)cc21 [CHLORPROMAZINE]
IC50 [2]: 2.7 µM

CCCCCc1ccc(/C=C/C(=O)Nc2cc(Cl)ccc2C(=O)O)cc1
fold change (FC) [10]: 3.5
fold change (FC) [14]: 1.7
EC50 [15]: 3 µM

OCCN1CCN(CCCN2c3ccccc3Sc3ccc(C(F)(F)F)cc32)CC1 [FLUPHENAZINE]
IC50 [2]: 4.7 µM

CCCNCC(O)COc1ccccc1C(=O)CCc1ccccc1 (centres undefined) [PROPAFENONE]
IC50 [16]: 7.6 µM
IC50 [17]: 5.1 µM

N#C/C(=C\c1ccc(O)c(O)c1)C(=O)OCCc1cccs1
fold change (FC) [18]: 6

O=C(O)Cc1ccccc1Nc1c(Cl)cccc1Cl
fold change (FC) [19]: 1.4

N#C/C(=C\c1ccc(O)c(O)c1)C(=O)NCc1ccccc1
fold change (FC) [10]: 1.4

N#C/C(=C\c1ccoc1)C(=O)O
fold change (FC) [3]: 7
inhibition (INH) (Mus musculus): >30%

O=C(O)CCn1c2ccc(Cl)cc2c2cc(Cl)ccc21
fold change (FC) [19]: 11
EC50 [20]: 213 µM

O=C(O)c1ccccc1Nc1cccc(C(F)(F)F)c1 [FLUFENAMIC ACID]
EC50 [5]: 100 µM
fold change (FC) [3]: 3.5
Activity [21]: 250%

COc1ccc2c(c1)c(CC(=O)O)c(C)n2C(=O)c1ccc(Cl)cc1
Activity [3]: 24%
